This is an account of results in patent US12331054B2, “Perk inhibiting imidazolopyrazine compounds” (HiberCell, Inc., priority 2019, dated 2025).

For assay [1], the target named is Recombinant human EIF2AK3 (PERK) catalytic domain (amino acids 536-1116) (Homo sapiens (Human), UniProt Q9NZJ5). Briefly: PERK In Vitro Activity Assay (isolated), TR-FRET kinase assay. The following applies: isolated PERK enzyme, 1.5 μM ATP, read-out: Biochemical IC50. From the text: PERK In Vitro Activity Assay (isolated):
In vitro Inhibition of PERK Enzyme Activity (isolated) Recombinant human EIF2AK2 (PKR) catalytic domain (amino acids 252-551), EIF2AK3 (PERK) catalytic domain (amino acids 536-1116), GFP-eIF2a substrate, and Terbium-labelled phospho-eIF2a antibody is obtained (Invitrogen, Carlsbad, CA).
Express and purify HIS-SUMO-GCN2 catalytic domain (amino acids 584-1019) from E. coli. Perform TR-FRET kinase assays in the absence or presence of inhibitors in a reaction buffer consisting of 50 mM HEPES, pH 7.5, 10 mM MgCb, 1.0 mM EGTA, and 0.01% Brij-35, and 100-200 nM GFP-eIF2a substrate. […] Add test compound, initiate the reaction by addition of enzyme, and incubate at room temperature for 45 minutes. Stop the reaction by addition of EDTA to a final concentration of 10 mM, add Terbium-labelled phospho-eIF2a antibody at a final concentration of 2 nM, and incubate for 90 minutes. Monitor the resulting fluorescence in an EnVison® Multilabel reader (PerkinElmer, Waltham, MA). Determine TR-FRET ratios and the resulting IC50 values using a 4-parameter nonlinear logistic equation as shown: Y=(A+((B−A)/(1+(C/x)AD)))) where, Y=% specific inhibition, A=Bottom of the curve, B=Top of the curve, C=absolute IC50 (concentration causing 50% inhibition), and D=hill slope.
For orientation: TR-FRET usually uses a lanthanide donor and a delayed reading to cut background.

In assay [2] the test system is eIF2α in HEK293-EGFP-eIF2α cells. Description: PERK Cellular Assay (HEK293-EGFP-eIF2α cells, tunicamycin-induced ER stress, TR-FRET). The format is cell-based. The conditions noted are these: tunicamycin 2 hours. As to the method: Stable cell lines were created in HEK293 cells using lentiviral particles harboring an expression vector for GFP-eIF2α. Cells were selected using puromycin and enriched using fluorescence activated cell sorting against GFP. HEK293-EGFP-eIF2α cells were plated at 5000 cells/well in 384-well assay plates and incubated overnight at 37° C., 5% CO2. Inhibitor compounds were added to the wells by Echo acoustic dispensing and incubated for 30 minutes at 37° C., 5% CO2 prior to induction of ER stress by addition of tunicamycin to […] for 2 hours. Cells were lysed and TR-FRET was measured in an EnVision plate reader (PerkinElmer). FRET ratio data was normalized to signal from lysates treated with DMSO vehicle control and plotted as percent inhibition against 10-point; 3-fold dilution series of inhibitors. IC50 values were calculated using 4-parameter logistical fitting in XLFit.

Sequence of Recombinant human EIF2AK3 (PERK) catalytic domain (amino acids 536-1116) (Q9NZJ5 536-1116): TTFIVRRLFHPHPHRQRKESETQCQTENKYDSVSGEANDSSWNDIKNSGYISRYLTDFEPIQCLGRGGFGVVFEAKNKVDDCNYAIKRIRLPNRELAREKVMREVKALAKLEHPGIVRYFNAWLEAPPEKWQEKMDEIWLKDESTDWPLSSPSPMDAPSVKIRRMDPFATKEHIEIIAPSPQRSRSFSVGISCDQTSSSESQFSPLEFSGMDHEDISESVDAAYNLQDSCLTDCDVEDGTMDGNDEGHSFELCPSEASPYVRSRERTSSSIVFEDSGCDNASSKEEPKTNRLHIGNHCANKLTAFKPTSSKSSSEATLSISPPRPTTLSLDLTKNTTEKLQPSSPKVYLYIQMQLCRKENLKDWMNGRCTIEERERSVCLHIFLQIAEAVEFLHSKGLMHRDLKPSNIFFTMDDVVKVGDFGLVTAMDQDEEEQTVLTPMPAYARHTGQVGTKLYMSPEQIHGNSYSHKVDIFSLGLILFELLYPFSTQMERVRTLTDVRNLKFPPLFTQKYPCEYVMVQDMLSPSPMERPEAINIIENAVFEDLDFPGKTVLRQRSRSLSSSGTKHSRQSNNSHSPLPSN

On to `Cc1cn2c(C)nc(-c3ccc(NC(=O)C(O)c4cccc(F)c4)cc3C)c2c(N)n1` (single isomer, unassigned) [Example 3, N-(4-(8-amino-3,6-dimethylimidazo[1,5-a]pyrazin-1-yl)-3-methylphenyl)-2-(3-fluorophenyl)-2-hydroxyacetamide], for which the IC50 fell in the range of 1 to 25 nM in assay [1] and 26 to 50 nM in assay [2].
Turning to `Cc1cn2c(C)nc(-c3ccc(NC(=O)C(O)c4cccc(F)c4)cc3C)c2c(N)n1` (single isomer, unassigned) [Example 4, N-(4-(8-amino-3,6-dimethylimidazo[1,5-a]pyrazin-1-yl)-3-methylphenyl)-2-(3-fluorophenyl)-2-hydroxyacetamide], the figures for the IC50 in assay [1] and in assay [2] were 51 to 100 nM and 251 to 500 nM, respectively.
As for `Cc1cc(NC(=O)C(O)c2cccc(F)c2)ccc1-c1nc(C)n2ccnc(N)c12` (centres unmarked) [Example 1, N-(4-(8-amino-3-methylimidazo[1,5-a]pyrazin-1-yl)-3-methylphenyl)-2-(3-fluorophenyl)-2-hydroxyacetamide], the values for the IC50 in assay [1] and in assay [2] were 1 to 25 nM and 26 to 50 nM, respectively.
In the case of `Cc1cc(NC(=O)C(O)c2cccc(F)c2)ccc1-c1nc(C)n2ccnc(N)c12` (centres unmarked) [Example 2, N-(4-(8-amino-3-methylimidazo[1,5-a]pyrazin-1-yl)-3-methylphenyl)-2-(3-fluorophenyl)-2-hydroxyacetamide], the IC50 in assay [1] lay in the range of 26 to 50 nM; in assay [2], 251 to 500 nM.
For `[2H]C([2H])([2H])c1nc(-c2ccc(NC(=O)C(O)c3cccc(F)c3)cc2C)c2c(N)nc(C)cn12` (centres unmarked) [Example 5, N-(4-(8-amino-6-methyl-3-(trideuteriomethyl)imidazo[1,5-a]pyrazin-1-yl)-3-methylphenyl)-2-(3-fluorophenyl)-2-hydroxyacetamide], the IC50 in assay [1] and in assay [2] (2 h) was 1 to 25 nM each time.
As for `Cc1cc(NC(=O)C(O)c2cccc(F)c2)ccc1-c1nc(C)n2c(C)cnc(N)c12` (centres unmarked) [Example 8, N-(4-(8-amino-3,5-dimethylimidazo[1,5-a]pyrazin-1-yl)-3-methylphenyl)-2-(3-fluorophenyl)-2-hydroxyacetamide], the IC50 in assay [1] was in the range of 1 to 25 nM; in assay [2], 26 to 50 nM.
Taken in the same sequence, the figures for `Cc1cc(NC(=O)C(O)c2cccc(F)c2)ccc1-c1nc(C)n2c(C)cnc(N)c12` (centres unmarked) [Example 9, N-(4-(8-amino-3,5-dimethylimidazo[1,5-a]pyrazin-1-yl)-3-methylphenyl)-2-(3-fluorophenyl)-2-hydroxyacetamide] were 51 to 100 nM and 251 to 500 nM.
As for `[2H]C([2H])([2H])c1nc(-c2ccc(NC(=O)C(O)c3cccc(F)c3)cc2C)c2c(N)ncc(C)n12` (centres unmarked) [Example 10, N-(4-(8-amino-5-methyl-3-(trideuteriomethyl)imidazo[1,5-a]pyrazin-1-yl)-3-methylphenyl)-2-(3-fluorophenyl)-2-hydroxyacetamide], the IC50 in assay [1] and in assay [2] (2 h) was 1 to 25 nM throughout.
For the compound `[2H]C([2H])([2H])c1nc(-c2ccc(NC(=O)C(O)c3cccc(C(F)(F)F)c3)cc2C)c2c(N)nc(C)cn12` (centres unmarked) [Example 14, N-[4-[8-amino-6-methyl-3-(trideuteriomethyl)imidazo[1,5-a]pyrazin-1-yl]-3-methyl-phenyl]-2-hydroxy-2-[3-(trifluoromethyl)phenyl]acetamide], the IC50 in assay [1] is 1 to 25 nM; in assay [2], 26 to 50 nM.
The matching figures for `[2H]C([2H])([2H])c1nc(-c2ccc(NC(=O)C(O)c3cccc(C(F)(F)F)c3)cc2C)c2c(N)nc(C)cn12` (centres unmarked) [Example 15, N-[4-[8-amino-6-methyl-3-(trideuteriomethyl)imidazo[1,5-a]pyrazin-1-yl]-3-methyl-phenyl]-2-hydroxy-2-[3-(trifluoromethyl)phenyl]acetamide]: 101 to 250 nM and 251 to 500 nM.
The matching figures for `[2H]C([2H])([2H])c1nc(-c2ccc(NC(=O)C(O)c3cccc(C(F)(F)F)c3)cc2C)c2c(N)ncc(C)n12` (centres unmarked) [Example 16, N-[4-[8-amino-5-methyl-3-(trideuteriomethyl)imidazo[1,5-a]pyrazin-1-yl]-3-methyl-phenyl]-2-hydroxy-2-[3-(trifluoromethyl)phenyl]acetamide]: 1000 to 2000 nM and more than 5000 nM.
Taken in the same sequence, the figures for `[2H]C([2H])([2H])c1nc(-c2ccc(NC(=O)C(O)c3cccc(C(F)(F)F)c3)cc2C)c2c(N)ncc(C)n12` (centres unmarked) [Example 17, N-[4-[8-amino-5-methyl-3-(trideuteriomethyl)imidazo[1,5-a]pyrazin-1-yl]-3-methyl-phenyl]-2-hydroxy-2-[3-(trifluoromethyl)phenyl]acetamide] were 1 to 25 nM and 101 to 250 nM.
For the compound `[2H]C([2H])([2H])c1nc(-c2ccc(NC(=O)C(O)c3cccc(C(F)(F)F)c3)cc2C)c2c(N)ncc(Cl)n12` (centres unmarked) [Example 18, N-[4-[8-amino-5-chloro-3-(trideuteriomethyl)imidazo[1,5-a]pyrazin-1-yl]-3-methyl-phenyl]-2-hydroxy-2-[3-(trifluoromethyl)phenyl]acetamide], the IC50 in assay [1] and in assay [2] was 1 to 25 nM each time.
As to `[2H]C([2H])([2H])c1nc(-c2ccc(NC(=O)C(O)c3cccc(C(F)(F)F)c3)cc2C)c2c(N)ncc(Cl)n12` (centres unmarked) [Example 19, N-[4-[8-amino-5-chloro-3-(trideuteriomethyl)imidazo[1,5-a]pyrazin-1-yl]-3-methyl-phenyl]-2-hydroxy-2-[3-(trifluoromethyl)phenyl]acetamide], the IC50 fell in the range of 1 to 25 nM in assay [1] and 26 to 50 nM in assay [2].
`[2H]C([2H])([2H])c1nc(-c2ccc(NC(=O)C(O)c3cccc(C(F)(F)F)c3)cc2C)c2c(N)ncc(C(F)(F)F)n12` (centres unmarked) [Example 20, N-[4-[8-amino-3-(trideuteriomethyl)-5-(trifluoromethyl)imidazo[1,5-a]pyrazin-1-yl]-3-methyl-phenyl]-2-hydroxy-2-[3-(trifluoromethyl)phenyl]acetamide]: the IC50 in assay [1] fell in the range of 1 to 25 nM; in assay [2], 26 to 50 nM.
On to `[2H]C([2H])([2H])c1nc(-c2ccc(NC(=O)C(O)c3cccc(C(F)(F)F)c3)cc2C)c2c(N)ncc(C(F)(F)F)n12` (centres unmarked) [Example 21, N-[4-[8-amino-3-(trideuteriomethyl)-5-(trifluoromethyl)imidazo[1,5-a]pyrazin-1-yl]-3-methyl-phenyl]-2-hydroxy-2-[3-(trifluoromethyl)phenyl]acetamide], for which the figures for the IC50 in assay [1] and in assay [2] were 51 to 100 nM and 501 to 1000 nM, respectively.
Taken in the same sequence, the figures for `Cc1cc(NC(=O)C(O)c2cccc(F)c2)ccc1-c1nc(C)n2c(C(F)(F)F)cnc(N)c12` (centres unmarked) [Example 26, N-(4-(8-amino-3-methyl-5-(trifluoromethyl)imidazo[1,5-a]pyrazin-1-yl)-3-methylphenyl)-2-(3-fluorophenyl)-2-hydroxyacetamide] were 1 to 25 nM and 26 to 50 nM.
On to `Cc1cc(NC(=O)C(O)c2cccc(F)c2)ccc1-c1nc(C)n2c(C(F)(F)F)cnc(N)c12` (centres unmarked) [Example 27, N-(4-(8-amino-3-methyl-5-(trifluoromethyl)imidazo[1,5-a]pyrazin-1-yl)-3-methylphenyl)-2-(3-fluorophenyl)-2-hydroxyacetamide], for which the results for the IC50 in assay [1] and in assay [2] were 1 to 25 nM and 251 to 500 nM, respectively.
As for `Cc1cc(NC(=O)C(O)c2cccc(F)c2)ccc1-c1nc(C)n2c(Cl)cnc(N)c12` (centres unmarked) [Example 28, N-(4-(8-amino-5-chloro-3-methylimidazo[1,5-a]pyrazin-1-yl)-3-methylphenyl)-2-(3-fluorophenyl)-2-hydroxyacetamide], the IC50 in assay [1] and in assay [2] was 1 to 25 nM in each case.
`[2H]C([2H])([2H])c1nc(-c2ccc(NC(=O)C(O)c3cccc(Cl)c3)cc2C)c2c(N)ncc(C(F)(F)F)n12` (centres unmarked) [Example 40, N-[4-[8-amino-3-(trideuteriomethyl)-5-(trifluoromethyl)imidazo[1,5-a]pyrazin-1-yl]-3-methyl-phenyl]-2-(3-chlorophenyl)-2-hydroxy-acetamide]: in assay [1], the IC50 lay in the range of 1 to 25 nM.
With `[2H]C([2H])([2H])c1nc(-c2ccc(NC(=O)C(O)c3cccc(Cl)c3)cc2F)c2c(N)ncc(Cl)n12` (centres unmarked) [Example 86, N-[4-[8-amino-5-chloro-3-(trideuteriomethyl)imidazo[1,5-a]pyrazin-1-yl]-3-fluoro-phenyl]-2-(3-chlorophenyl)-2-hydroxy-acetamide], the IC50 in assay [1] lay in the range of 1 to 25 nM.
`[2H]C([2H])([2H])c1nc(-c2ccc(NC(=O)C(O)c3cccc(F)c3)nc2C)c2c(N)ncc(C)n12` (centres unmarked) [Example 172, N-[5-[8-amino-5-methyl-3-(trideuteriomethyl)imidazo[1,5-a]pyrazin-1-yl]-6-methyl-2-pyridyl]-2-(3-fluorophenyl)-2-hydroxy-acetamide]: the IC50 in assay [2] is 501 to 1000 nM.

Usually IC50 stands for the point on the concentration scale where inhibition reaches its midpoint.
